According to patent US20090311264A1, “Use of Disorazoles and Their Derivatives for the Treatment of Benign and Malignant Oncoses” (AEterna Zentaris GmbH, priority 2003, published 2009):
Converted amounts (≈) assume the structure as drawn. “Also recorded” adds a separate entry of the source. Where two headings read alike, the source gives them in different places. One block for each compound: values may come before it.

How the values were obtained:
[1] = tested on: human cervical carcinoma cell line KB/HeLa; experiment: XTT proliferation assay, KB/HeLa; type: cell-based; settings: for EC50: Homo sapiens, HeLa
Excerpt: (§1) The compounds according to the invention were investigated for their antiproliferative activity in a proliferation test on established tumor cell lines (D. A. Scuderio et al. Cancer Res. 1988, 48, 4827-4833). The test used determines the cellular dehydrogenase activity and makes possible a determination of the cell vitality and indirectly of the cell count. The cell lines used are the human cervical carcinoma cell line KB/HeLa (ATCC CCL17), the ovarian adenocarcinoma cell line SKOV-3 (ATCC HTB77), the human glioblastoma cell line SF-268 (NCI 503138), the lung carcinoma cell line NCI-H460 (NCI 503473) and the human colon adenocarcinoma cell line RKOP 27.

[2] = tested on: ovarian adenocarcinoma cell line SKOV-3; experiment: XTT proliferation assay, SKOV-3; type: cell-based, human; settings: for EC50: Homo sapiens, SK-OV-3, read-out: XTT proliferation assay, EC50, SKOV3
Excerpt: as §1

[3] = tested on: human glioblastoma cell line SF-268; experiment: XTT proliferation assay, SF-268; type: cell-based; settings: for EC50: Homo sapiens
Excerpt: as §1

[4] = tested on: lung carcinoma cell line NCI-H460; experiment: XTT proliferation assay, NCI-H460; type: cell-based, human; settings: for EC50: Homo sapiens, NCI-H460, read-out: XTT proliferation assay, EC50, NCl-H460
Excerpt: as §1

[5] = tested on: human colon adenocarcinoma cell line RKOP 27; experiment: XTT proliferation assay, RKOP 27; type: cell-based
Excerpt: as §1

[6] = tested on: bovine β-tubulin; experiment: Inhibition of the polymerization of tubulin; type: biochemical; settings: n = 2
Method: The substances were tested in an in-vitro test for inhibition of the polymerization of bovine β-tubulin (D. M. Bollag et al. Cancer Res. 1995, 55, 2325-2333). In this test, tubulin purified by cycles of polymerization and depolymerization is employed, and is polymerized by addition of GTP and warming. The EC50 values of the inhibition of polymerization of β-tubulin with and without 30% associated proteins (MAPs) are indicated in table 3.

[7] = tested on: acute myeloid leukemia cell line LT12; experiment: XTT proliferation test, LT12 (nonresistant); type: cell-based; settings: for EC50: Rattus norvegicus
Excerpt: (§2) For further characterization, the substances according to the invention were investigated against multi-drug-resistant cell lines (MDR) in comparison to the nonresistant wild-type cell lines. The cell lines investigated are the acute myeloid leukemia cell line LT1 and the resistant line LT12/mdr. Moreover, the murine P388 cell line (methylcholanthrene-induced lymphoid neoplasm) and the doxorubicin-resistant P388 were used as test systems.

[8] = tested on: resistant line LT12/mdr; experiment: XTT proliferation test, LT12MDR (resistant); type: cell-based; settings: for EC50: Rattus norvegicus, LT12
Excerpt: as §2

[9] = tested on: murine P388 cell line; experiment: XTT proliferation test, P388 (nonresistant); type: cell-based; settings: for EC50: Mus musculus
Excerpt: as §2

[10] = tested on: doxorubicin-resistant P388; experiment: XTT proliferation test, P388ADR (resistant); type: cell-based, murine; settings: for EC50: Mus musculus, P388
Excerpt: as §2

[11] = tested on: KB/HeLa cells; experiment: Cell cycle analysis (G2/M arrest); type: cell-based, human; settings: 24 hours at 37° C., read-out: EC50 (50% cells in G2/M)
[12] = tested on: NCI-H460 tumor xenograft; experiment: In vivo therapy experiment, NCI-H460 tumor xenograft; set-up: species or system nude mice; settings: for cases of death: n = 8 animals/group
Method: The in-vivo activity of the compounds according to the invention was tested on human and murine xenograft models.

[13] = tested on: Salmonella typhimurium TA100; type: cell-based; settings: for AMES TA100 with S9: with rat liver enzyme S9
Method: (§3) For the estimation of possible side effects, disorazole E1 was investigated for mutagenicity in a fluctuation assay against the mutant strains TA98 and TA100 of the bacterium Salmonella typhimurium at three concentrations (2.5; 5 and 10 μM). The mutagenicity investigations were further carried out in the presence of the rat liver enzyme S9.

[14] = tested on: Salmonella typhimurium TA98; type: cell-based; settings: for AMES TA98 with S9: with rat liver enzyme S9
Method: as §3

[15] = tested on: primary human hepatocytes; experiment: Survival of nonproliferating cells (alamarBlue); type: cell-based; settings: 1 μM, n = 3
Excerpt: (§4) For the estimation of the possible side-effect potential, the influence of disorazole E1 on nonproliferating cells and on the protein biosynthesis was investigated (table 6).

[16] = tested on: human hepatocellular carcinoma cells (HepG2); experiment: Protein synthesis (incorporation of 14C-methionine); type: cell-based; settings: 1 μM, 14C-methionine incorporation, n = 2
Excerpt: as §4

SMILES: C/C=C/[C@H](O)C(C)(C)[C@@H]1C\C=C/C=C\C=C\[C@H](OC)Cc2nc(co2)C(=O)O[C@H](C(C)(C)[C@@H](O)/C=C/C)C/C=C\[C@H]2O[C@H]2/C=C/C=C\c2nc(co2)C(=O)O1 [Disorazole A1]
XTT proliferation assay, EC50, KB/Hela [1]: 0.15 ng/mL
XTT proliferation assay, EC50, SKOV3 [2]: 0.2 ng/mL
XTT proliferation assay, EC50, SF-268 [3]: 0.27 ng/mL
XTT proliferation assay, EC50, NCl-H460 [4]: 0.15 ng/mL
XTT proliferation assay, EC50, RKOP 27 [5]: 0.25 ng/mL
Inhibition of the polymerization of β-tubulin, EC50 with 30% MAPs [6]: 4800 ng/mL

SMILES: C/C=C/C(O)C(C)(C)C1C/C=C\C2OC2C=CC(OC)Cc2nc(co2)C(=O)OC(C(C)(C)C(O)/C=C/C)C/C=C\C2OC2/C=C\C=Cc2nc(co2)C(=O)O1 (centres unmarked) [Disorazole E1]
XTT proliferation assay, EC50, KB/Hela [1]: 0.07 ng/mL
XTT proliferation assay, EC50, SKOV3 [2]: 0.02 ng/mL
XTT proliferation assay, EC50, SF-268 [3]: 0.17 ng/mL
XTT proliferation assay, EC50, NCl-H460 [4]: 0.04 ng/mL
XTT proliferation assay, EC50, RKOP 27 [5]: 0.06 ng/mL
XTT proliferation assay, EC50, LT12 [7]: 0.1 ng/mL
XTT proliferation assay, EC50, LT12MDR [8]: 4 ng/mL
XTT proliferation assay, EC50, P388 [9]: 0.4 ng/mL
XTT proliferation assay, EC50, P388ADR [10]: 1 ng/mL
Inhibition of the polymerization of β-tubulin, EC50 with 30% MAPs [6]: 1500 ng/mL
EC50 [11]: 1.6 nM
cases of death ([12]; 0.05 mg/kg, i.v.: day 0, 7, 14): 0.05 mg/kg; i.v.: day 0, 7, 14; no cases of
cases of death ([12]; 0.1 mg/kg, i.v.: day 0, 7, 14): 0.1 mg/kg; i.v.: day 0, 7, 14; no cases of
cases of death ([12]; 0.25 mg/kg, i.v.: day 0, 7, dead on day 11, 12, 13): 0.25 mg/kg; i.v.: day 0, 7; 8 dead (day
reduction of the tumor growth ([12]; i.v., NCI-H460 xenograft-bearing nude mice, at doses without weight decrease or mortality): significant reduction in tumor growth; also recorded: significant reduction of the tumor growth
weight decrease ([12]; i.v., at doses reducing tumor growth): no significant weight decrease
AMES TA100 with S9 ([13]; 2.5 μM): inactive
AMES TA100 without S9 ([13]; 2.5 μM): inactive
AMES TA100 with S9 ([13]; 5 μM): inactive
AMES TA100 without S9 ([13]; 5 μM): inactive
AMES TA100 with S9 ([13]; 10 μM): inactive
AMES TA100 without S9 ([13]; 10 μM): inactive
AMES TA98 with S9 ([14]; 2.5 μM): inactive
AMES TA98 without S9 ([14]; 2.5 μM): inactive
AMES TA98 with S9 ([14]; 5 μM): inactive
AMES TA98 without S9 ([14]; 5 μM): inactive
AMES TA98 with S9 ([14]; 10 μM): inactive
AMES TA98 without S9 ([14]; 10 μM): inactive
AMES test, overall result ([14]; TA98 and TA100, with and without S9, 2.5, 5 and 10 μM): AMES test-inactive
Surviving cells, primary human hepatocytes, Average, % of control [15]: 119.6 % of control
Protein synthesis, Average, % of control [16]: 95.9 % of control

EC50 [1]: 10 ng/mL (≈ 0.0117 µM)
EC50 [2]: 10 ng/mL (≈ 0.0117 µM)
EC50 [3]: 10 ng/mL (≈ 0.0117 µM)
EC50 [4]: 10 ng/mL (≈ 0.0117 µM)
EC50 [7]: 5 ng/mL (≈ 0.00586 µM)
EC50 [9]: 35 ng/mL (≈ 0.041 µM)
EC50 [10]: > 3160 ng/mL
EC50 ([11]; Homo sapiens): 46 nM
SMILES: CC(=O)O[C@H]1C(=O)[C@@]2(C)[C@H]([C@H](OC(=O)c3ccccc3)[C@]3(O)C[C@H](OC(=O)[C@H](O)[C@@H](NC(=O)c4ccccc4)c4ccccc4)C(C)=C1C3(C)C)[C@]1(OC(C)=O)CO[C@@H]1C[C@@H]2O [Paclitaxel]
EC50 [8]: 340 ng/mL (≈ 0.398 µM)

EC50 [1]: 2 ng/mL (≈ 0.00265 µM)
EC50 [2]: 2 ng/mL (≈ 0.00265 µM)
EC50 [3]: 5 ng/mL (≈ 0.00663 µM)
EC50 [4]: 6 ng/mL (≈ 0.00796 µM)
EC50 [7]: 0.9 ng/mL (≈ 0.00119 µM)
EC50 [9]: 9 ng/mL (≈ 0.0119 µM)
EC50 [10]: 940 ng/mL (≈ 1.25 µM)
Inhibition of the polymerization of β-tubulin, EC50 with 30% MAPs [6]: 400 ng/mL
EC50 ([11]; Homo sapiens): 3 nM
SMILES: CC[C@]1(O)C[C@@H]2CN(CCc3c([nH]c4ccccc34)[C@@](C(=O)OC)(c3cc4c(cc3OC)N(C)[C@H]3[C@@](O)(C(N)=O)[C@H](O)[C@]5(CC)C=CCN6CC[C@]43[C@@H]65)C2)C1 [Vindesine]
EC50 [8]: 222 ng/mL (≈ 0.294 µM)
